Structures are written as SMILES.

Series [1] relates to dopamine, noradrenaline and serotonine reuptake. The experiment in a line: In vitro pharmacology, summary in words over binding and reuptake inhibition. How it is done:
(§1) In vitro affinity for neurotransmitter reuptake sites were either obtained by CEREP (128, rue Danton, 92500 Rueil-Malmaison, France) or at Solvay Pharmaceuticals B. V. (C. J. van Houtenlaan 36, 1381 CP Weesp, The Netherlands), using well documented procedures. Measured were affinities for serotonin (Tatsumi, 1999), norepinephrine (Pacholczyk, 1991) and dopamine reuptake sites (Pristupa, 1994).
(§2) Subsequently, the synaptosomes were exposed to [^3H]-serotonin ([…] final concentration) for 10 min. [^3H]-Serotonine uptake was stopped by filtration with a harvester and the non-incorporated radioactivity was removed by extensive washing. Filter plates with synaptosomes were dehydrated, and the amount of [^3H]-serotonin present was determined by Betaplate liquid scintillation counting.
In vitro functional inhibition of [^3H]-norepinephrine reuptake: male rats (Wistar Hsd/Cpb: WU; 175-200 g) were decapitated, the hypothalamus was rapidly removed and a crude synaptosomal fraction was prepared. […] [^3H]-Norepinephrine uptake was stopped by filtration with a harvester and the non-incorporated radioactivity was removed by an extensive washing programme. The filterplates with synaptosomes were dehydrated and the amount of [^3H]-norepinephrine present was determined by Betaplate liquid scintillation counting. […]

A further series can be described thus: in vivo. The following applies: for Kp / half-life: in vivo. As to the method:
Proteins in 100 μl plasma were precipitated with acetonitrile, and 5 μl samples of the obtained solutions were analyzed. Complete brains were homogenized and centrifuged, and 10 μl samples of the supernatant were analyzed.
Liquid Chromatography-Tandem Mass Spectrometry (LC-MS/MS) was performed using a Sciex API4000 LC-MS/MS. Samples were quantified using extracted calibration samples, treated the same as the study samples, in the range of 1-5000 ng/ml and 5.0-5000 ng/brain for plasma and brain samples, respectively. Compound peak area was used for quantification. Calibration curves were fitted to the model y=A+Bx+Cx^2 (y is the peak area of the analyte, x is the nominal calibration level in ng/ml (plasma) or ng/g (brain), A is the intercept, B is the slope and C is the description of the curvature). 1/x^2 weighing was used. LC-MS/MS system performance was monitored using a reference solution injected at standard intervals. […] The Lower Limit Of Quantification (LLOQ) was established at 1.00 ng/ml and 5.00 ng/brain, for plasma and brain samples, respectively. Values below the LLOQ were given as best estimate. Reversed phase HPLC was performed using gradient elution by a Hypersil BDS C18 100×4.6 mm 3 μm analytical column, at 45° C. and with a flow of 1.00 ml/min: […]

The target in the next series is serotonin reuptake sites (Homo sapiens, UniProt P31645). Put plainly: In vitro affinity for serotonin reuptake sites. The series is classed as binding. Particulars: read-out: Serotonine binding pKi (converted).
The next series concerns the target T1, [3H]-serotonin reuptake (Rattus norvegicus, UniProt P31652).
T1 construct: the cerebral hemispheres were rapidly removed, and a P2-synaptosomal fraction was prepared; from tissue; host or cells: rat cerebral hemispheres, P2 synaptosomal fraction
Put plainly: In vitro functional inhibition of [3H]-serotonin reuptake, cerebral hemisphere synaptosomes. The series is classed as biochemical. The following applies: read-out: Serotonine inhibition pIC50 (converted). As to the method:
as §2

A further series addresses T2, [3H]-dopamine reuptake (Rattus norvegicus, UniProt P23977).
T2 construct: the striatum was rapidly removed and a crude synaptosomal fraction (P2) was prepared; from tissue; host or cells: rat striatum, crude P2 synaptosomal fraction
The experiment in a line: In vitro functional inhibition of [3H]-dopamine reuptake, striatum synaptosomes. The series is classed as biochemical. Particulars: read-out: Dopamine inhibition pIC50 (converted). How it is done: In vitro functional inhibition of [^3H]-dopamine reuptake: male rats (Wistar Hsd/Cpb: WU; 175-200 g) were decapitated; the striatum was rapidly removed and a crude synaptosomal fraction (P2) was prepared by homogenization and centrifugation. Synaptosomes were pre-incubated in absence or presence of the test compound for 15 min at 37° C., in a medium containing the monoamine oxidase inhibitor pargyline (7×10^−6 M) (Coyle, 1969). Subsequently, [^3H]-dopamine (2×10^−7 M final concentration) was added and incubation was continued for 10 min. [^3H]-dopamine uptake was stopped by filtration and the synaptosomes were washed four times with phosphate buffered saline. The amount of [^3H]-dopamine in the synaptosomes was determined by Betaplate liquid scintillation counting. […] Inhibition of DA uptake was performed in duplicate.

The target of series [2] is norepinephrine reuptake sites (Homo sapiens, UniProt P23975). Put plainly: In vitro affinity for norepinephrine reuptake sites. In kind it is binding. Particulars: read-out: Noradrenaline binding pKi (converted).
In the next series the target is dopamine reuptake sites (Homo sapiens, UniProt Q01959). Put plainly: In vitro affinity for dopamine reuptake sites. In kind it is binding. Particulars: read-out: Dopamine binding pKi (converted).
Text: as §1

Series [3] has as its target T3, [3H]-norepinephrine reuptake (Rattus norvegicus, UniProt Q63380).
T3 construct: the hypothalamus was rapidly removed and a crude synaptosomal fraction was prepared; from tissue; host or cells: rat hypothalamus, crude synaptosomal fraction
Put plainly: In vitro functional inhibition of [3H]-norepinephrine reuptake, hypothalamus synaptosomes. In kind it is biochemical. The following applies: read-out: Noradrenaline inhibition pIC50 (converted). As to the method:
In vitro functional inhibition of [^3H]-norepinephrine reuptake: male rats (Wistar Hsd/Cpb: WU; 175-200 g) were decapitated, the hypothalamus was rapidly removed and a crude synaptosomal fraction was prepared. Synaptosomes were pre-incubated in absence or presence of the test compound for 10 min at 37° C., in a medium containing the MAO inhibitor pargyline (7 μM). Subsequently, the synaptosomes were exposed to [^3H]-norepinephrine ([…] final concentration) for 15 min. [^3H]-Norepinephrine uptake was stopped by filtration with a harvester and the non-incorporated radioactivity was removed by an extensive washing programme. The filterplates with synaptosomes were dehydrated and the amount of [^3H]-norepinephrine present was determined by Betaplate liquid scintillation counting. […] Test compounds, 10^−2 M dissolved in DMSO, were diluted in Krebs Ringer buffer to test concentrations of 10^−8-10^−5 M. Further experimental details were as described (Coyle, 1969).

[4] abbreviates: male, NMRI, mouse, po, 10 mg/kg.
Setting [5] is: male, NMRI, mouse, plasma, iv, 1 mg/kg.
Setting [6] is: male, NMRI, mouse, plasma, po, 10 mg/kg.

T1 sequence (P31652 whole entry): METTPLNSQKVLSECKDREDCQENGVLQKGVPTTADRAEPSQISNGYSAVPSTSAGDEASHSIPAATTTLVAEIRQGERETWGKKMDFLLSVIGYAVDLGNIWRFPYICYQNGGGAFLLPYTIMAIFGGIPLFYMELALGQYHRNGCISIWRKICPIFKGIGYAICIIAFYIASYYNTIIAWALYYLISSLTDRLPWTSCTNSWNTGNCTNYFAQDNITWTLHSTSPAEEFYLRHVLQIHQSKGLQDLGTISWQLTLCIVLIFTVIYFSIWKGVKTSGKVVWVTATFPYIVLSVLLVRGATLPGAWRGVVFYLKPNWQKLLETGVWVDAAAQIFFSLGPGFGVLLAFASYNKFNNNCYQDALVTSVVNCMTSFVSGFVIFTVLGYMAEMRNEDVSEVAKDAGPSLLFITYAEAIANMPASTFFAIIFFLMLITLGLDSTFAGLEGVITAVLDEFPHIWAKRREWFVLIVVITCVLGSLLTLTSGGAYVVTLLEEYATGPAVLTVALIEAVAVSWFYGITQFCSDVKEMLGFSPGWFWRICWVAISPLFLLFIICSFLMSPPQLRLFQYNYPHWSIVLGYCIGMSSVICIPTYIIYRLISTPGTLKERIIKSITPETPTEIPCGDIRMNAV
Sequence of dopamine reuptake sites (Q01959 whole entry): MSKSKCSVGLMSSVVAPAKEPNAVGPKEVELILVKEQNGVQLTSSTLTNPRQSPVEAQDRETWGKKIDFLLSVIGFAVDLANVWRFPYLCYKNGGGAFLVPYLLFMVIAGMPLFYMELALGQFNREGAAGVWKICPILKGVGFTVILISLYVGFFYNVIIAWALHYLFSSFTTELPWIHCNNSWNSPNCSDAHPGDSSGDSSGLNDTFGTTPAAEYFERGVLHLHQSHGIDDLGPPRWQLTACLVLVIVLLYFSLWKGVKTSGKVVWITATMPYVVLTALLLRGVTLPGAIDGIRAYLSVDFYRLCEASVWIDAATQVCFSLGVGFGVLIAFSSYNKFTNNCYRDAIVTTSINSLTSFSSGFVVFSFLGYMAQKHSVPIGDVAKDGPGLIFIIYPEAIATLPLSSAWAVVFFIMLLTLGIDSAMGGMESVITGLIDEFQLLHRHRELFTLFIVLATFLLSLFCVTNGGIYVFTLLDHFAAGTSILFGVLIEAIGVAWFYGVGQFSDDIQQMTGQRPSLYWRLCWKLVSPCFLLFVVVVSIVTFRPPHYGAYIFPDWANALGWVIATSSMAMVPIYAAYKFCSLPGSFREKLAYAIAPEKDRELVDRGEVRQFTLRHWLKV
Sequence of serotonin reuptake sites (P31645 whole entry): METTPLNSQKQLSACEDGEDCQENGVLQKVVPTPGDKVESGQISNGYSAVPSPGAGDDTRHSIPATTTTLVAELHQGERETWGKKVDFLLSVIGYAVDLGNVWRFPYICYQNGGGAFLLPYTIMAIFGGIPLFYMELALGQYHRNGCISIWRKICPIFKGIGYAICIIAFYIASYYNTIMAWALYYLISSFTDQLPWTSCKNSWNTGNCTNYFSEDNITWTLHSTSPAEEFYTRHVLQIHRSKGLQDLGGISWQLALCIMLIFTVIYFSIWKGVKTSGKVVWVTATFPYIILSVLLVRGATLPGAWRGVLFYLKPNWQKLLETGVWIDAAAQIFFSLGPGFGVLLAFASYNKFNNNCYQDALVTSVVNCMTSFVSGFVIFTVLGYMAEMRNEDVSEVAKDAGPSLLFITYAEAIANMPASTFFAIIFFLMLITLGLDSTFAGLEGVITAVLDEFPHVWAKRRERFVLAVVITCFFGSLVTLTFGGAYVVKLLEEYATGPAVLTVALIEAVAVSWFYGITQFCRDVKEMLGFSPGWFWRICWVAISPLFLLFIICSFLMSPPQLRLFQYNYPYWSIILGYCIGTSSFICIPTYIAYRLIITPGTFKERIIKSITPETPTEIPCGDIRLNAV
Sequence of norepinephrine reuptake sites (P23975 whole entry): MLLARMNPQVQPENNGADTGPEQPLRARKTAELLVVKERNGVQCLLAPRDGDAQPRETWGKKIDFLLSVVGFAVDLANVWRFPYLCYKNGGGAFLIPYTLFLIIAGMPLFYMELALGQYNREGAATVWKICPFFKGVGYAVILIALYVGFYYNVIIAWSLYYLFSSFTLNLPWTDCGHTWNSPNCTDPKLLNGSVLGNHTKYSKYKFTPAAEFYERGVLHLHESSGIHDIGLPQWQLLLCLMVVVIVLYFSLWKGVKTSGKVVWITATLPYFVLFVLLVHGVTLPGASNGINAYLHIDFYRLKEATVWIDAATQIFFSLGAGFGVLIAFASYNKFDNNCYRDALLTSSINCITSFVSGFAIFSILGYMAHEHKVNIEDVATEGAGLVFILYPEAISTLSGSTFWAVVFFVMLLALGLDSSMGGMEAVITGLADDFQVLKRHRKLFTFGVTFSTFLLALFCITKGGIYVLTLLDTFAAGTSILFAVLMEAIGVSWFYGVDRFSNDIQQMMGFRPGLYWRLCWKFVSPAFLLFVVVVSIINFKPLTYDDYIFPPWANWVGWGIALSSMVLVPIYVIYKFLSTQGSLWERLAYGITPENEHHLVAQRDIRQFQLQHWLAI
T2 sequence (P23977 whole entry): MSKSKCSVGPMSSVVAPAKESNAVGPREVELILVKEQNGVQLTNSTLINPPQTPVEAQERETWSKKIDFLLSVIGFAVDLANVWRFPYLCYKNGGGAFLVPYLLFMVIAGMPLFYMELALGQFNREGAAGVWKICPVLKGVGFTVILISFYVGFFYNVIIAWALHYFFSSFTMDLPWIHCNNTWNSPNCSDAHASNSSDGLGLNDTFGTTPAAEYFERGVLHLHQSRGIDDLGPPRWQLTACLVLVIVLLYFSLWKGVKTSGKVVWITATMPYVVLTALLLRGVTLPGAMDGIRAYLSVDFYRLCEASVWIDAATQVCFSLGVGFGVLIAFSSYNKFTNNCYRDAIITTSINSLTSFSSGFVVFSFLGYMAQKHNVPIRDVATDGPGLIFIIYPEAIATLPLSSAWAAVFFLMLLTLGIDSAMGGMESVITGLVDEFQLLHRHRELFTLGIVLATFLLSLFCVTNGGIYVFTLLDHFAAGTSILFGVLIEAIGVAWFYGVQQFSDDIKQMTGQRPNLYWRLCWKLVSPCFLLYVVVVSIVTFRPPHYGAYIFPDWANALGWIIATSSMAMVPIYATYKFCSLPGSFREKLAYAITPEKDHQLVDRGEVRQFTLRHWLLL
T3 sequence (Q63380 1-617): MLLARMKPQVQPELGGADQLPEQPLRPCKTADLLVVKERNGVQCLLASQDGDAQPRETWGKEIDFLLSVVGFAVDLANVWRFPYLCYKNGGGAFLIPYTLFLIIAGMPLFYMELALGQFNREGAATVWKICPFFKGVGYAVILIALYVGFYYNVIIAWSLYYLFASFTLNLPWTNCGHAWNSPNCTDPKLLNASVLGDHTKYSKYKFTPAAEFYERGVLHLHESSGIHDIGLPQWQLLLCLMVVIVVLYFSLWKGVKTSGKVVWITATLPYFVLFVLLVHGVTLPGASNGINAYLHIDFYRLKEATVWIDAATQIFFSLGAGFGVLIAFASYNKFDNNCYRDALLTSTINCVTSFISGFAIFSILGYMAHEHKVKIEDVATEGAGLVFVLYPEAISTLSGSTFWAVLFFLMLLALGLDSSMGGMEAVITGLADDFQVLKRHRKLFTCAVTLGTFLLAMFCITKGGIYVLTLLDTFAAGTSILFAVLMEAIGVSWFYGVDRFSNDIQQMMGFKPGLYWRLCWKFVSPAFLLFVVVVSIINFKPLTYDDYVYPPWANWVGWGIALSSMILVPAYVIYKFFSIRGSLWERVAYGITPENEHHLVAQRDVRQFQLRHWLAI

Consider `CN(C)CC(c1ccc(O)cc1)C1(O)CCCCC1` (racemic) [O-desmethylvenlafaxine, (R,S)-1-[2-(dimethylamino)-1-(4-hydroxyphenyl)ethyl]-cyclohexanol], for which, in series [1], the “In vitro activity, in words” value is listed as “equipotent with venlafaxine”.
Turning to `COc1ccc(C(CN(C)C)C2(O)CCCCC2)cc1` (racemic) [Venlafaxine, (R,S)-1-(2-(Dimethylamino)-1-(4-methoxyphenyl)ethyl)cyclohexanol, reference compound], the “In vitro activity, in words” value in series [1] is listed as “most potent as inhibitor of serotonine reuptake”. In “in vivo” (male, NMRI, mouse, iv, 1 mg/kg), this molecule had a Kp of 3.1 and a half-life of 48 min. In the series “in vivo” (setting [4]), this molecule showed a Kp of 3.4 and a half-life of 54 min. Also, in “in vivo” (setting [5]), the AUC worked out at 194 ng·h/mL, the AUC(0-inf) worked out at 195 ng·h/mL, the Cmax came to 408 ng/mL and the Tmax was 0 min. In “in vivo” (setting [5]), this molecule came in with a Vd of 6.2 L/kg and a clearance of 85.6 mL/min/kg. The bioavailability in the series “in vivo” (male, NMRI, mouse, plasma, oral, 10 mg/kg) was found to be 48.7%. In the series “in vivo” (setting [6]), the AUC worked out at 943 ng·h/mL, the AUC(0-inf) stood at 948 ng·h/mL, the Cmax is 630 ng/mL and the Tmax was determined as 12 min. For the same molecule, in “in vivo” (mice, after administration of venlafaxine), the “N-oxide found in brain” value is reported as “only traces”.
For `COc1ccc([C@H](C[N+](C)(C)[O-])C2(O)CCCCC2)cc1` [(R)-venlafaxine-N-oxide, R-Venlafaxine N-oxide], the figures for the Ki (on serotonin reuptake sites; in series [2]; at dopamine reuptake sites) were 7.94 µM, above 31.6 µM and above 31.6 µM, respectively. Further, the IC50 was 20 µM in series [3H]-serotonin reuptake, above 31.6 µM in series [3H]-dopamine reuptake and 39.8 µM in series [3].
`CN(C)C[C@@H](c1ccc(O)cc1)C1(O)CCCCC1` [(R)—O-desmethyl-venlafaxine, O-desmethyl-R-Venlafaxine, reference compound]: the IC50 was 5.01 µM in series [3H]-dopamine reuptake and 0.398 µM in series [3].
Take `C[N+](C)([O-])C[C@@H](c1ccc(O)cc1)C1(O)CCCCC1` [(R)—O-desmethyl-venlafaxine-N-oxide, O-Desmethyl-R-venlafaxine N-oxide]: the Ki on serotonin reuptake sites was 10 µM; in series [2] it was above 31.6 µM; at dopamine reuptake sites, above 31.6 µM. Also, the values for the IC50 in series [3H]-serotonin reuptake, in series [3H]-dopamine reuptake and in series [3] were 39.8 µM, above 31.6 µM and above 31.6 µM, respectively.
Consider `COc1ccc([C@@H](C[N+](C)(C)[O-])C2(O)CCCCC2)cc1` [(S)-venlafaxine-N-oxide, S-Venlafaxine N-oxide], for which the Ki was 6.31 µM on serotonin reuptake sites, above 31.6 µM in series [2] and above 31.6 µM on dopamine reuptake sites. The IC50 was 15.8 µM in series [3H]-serotonin reuptake, above 31.6 µM in series [3H]-dopamine reuptake and above 31.6 µM in series [3].
Turning to `CN(C)C[C@H](c1ccc(O)cc1)C1(O)CCCCC1` [(S)—O-desmethyl-venlafaxine, O-desmethyl-S-Venlafaxine, reference compound], the IC50 in series [3H]-dopamine reuptake is 10 µM; in series [3], 0.398 µM.
As for `C[N+](C)([O-])C[C@H](c1ccc(O)cc1)C1(O)CCCCC1` [(S)—O-desmethyl-venlafaxine-N-oxide, O-desmethyl-S-venlafaxine N-oxide], the results for the Ki (on serotonin reuptake sites; in series [2]; at dopamine reuptake sites) were 12.6 µM, above 31.6 µM and above 31.6 µM, respectively. Further, the IC50 in series [3H]-serotonin reuptake is 25.1 µM; in series [3H]-dopamine reuptake it was above 31.6 µM; in series [3], above 31.6 µM.

The term half-life denotes how long it takes for the measured level to halve. Low readings indicate rapid decline, high ones slow decline. What is called AUC is the area under the concentration-time curve, a measure of exposure. Read a low AUC as low exposure. Broadly, the AUC(0-inf) is the area under the concentration-time curve extrapolated to infinity. For orientation: Cmax means the highest concentration seen after dosing. For orientation: Tmax means the time from dosing to the highest level. The bioavailability is the share of a dose that reaches the circulation, judged against a reference dose that is usually intravenous. Lower therefore signals little systemic uptake.
